Reference: ChEMBL document CHEMBL1806435, “Discovery of bacterial NAD+-dependent DNA ligase inhibitors: optimization of antibacterial activity” (Bioorg Med Chem Lett, 2011)
≈ marks a conversion by molar mass, not a printed value.

Experiments:
[1] = Inhibition of Staphylococcus aureus LigA by FRET-based assay
[2] = Inhibition of Streptococcus pneumoniae LigA by FRET-based assay
[3] = system: Streptococcus pneumoniae; assay: Antibacterial activity against Streptococcus pneumoniae; assay type: functional
[4] = system: Staphylococcus aureus; assay: Antibacterial activity against Staphylococcus aureus; assay type: functional
[5] = Apparent permeability from apical to basolateral side in human Caco2 cells; assay type: ADME, cell-based; settings: Caco-2
[6] = Lipophilicity, log D of the compound in octanol buffer at pH 7.4 by shake flask method; assay type: physicochemical
[7] = Equilibrium solubility of the compound; assay type: physicochemical
[8] = Plasma protein binding in human assessed as fraction unbound by equilibrium dialysis method; assay type: ADME, cell-free
[9] = Inhibition of […] LigA by FRET-based assay; parameters: species or system Haemophilus influenzae
[10] = Inhibition of Escherichia coli LigA by FRET-based assay
[11] = biological target: DNA ligase 1 (Homo sapiens, UniProt P18858); assay: Inhibition of human DNA Ligase I by FRET-based assay
Sequence of DNA ligase 1 (P18858 whole entry): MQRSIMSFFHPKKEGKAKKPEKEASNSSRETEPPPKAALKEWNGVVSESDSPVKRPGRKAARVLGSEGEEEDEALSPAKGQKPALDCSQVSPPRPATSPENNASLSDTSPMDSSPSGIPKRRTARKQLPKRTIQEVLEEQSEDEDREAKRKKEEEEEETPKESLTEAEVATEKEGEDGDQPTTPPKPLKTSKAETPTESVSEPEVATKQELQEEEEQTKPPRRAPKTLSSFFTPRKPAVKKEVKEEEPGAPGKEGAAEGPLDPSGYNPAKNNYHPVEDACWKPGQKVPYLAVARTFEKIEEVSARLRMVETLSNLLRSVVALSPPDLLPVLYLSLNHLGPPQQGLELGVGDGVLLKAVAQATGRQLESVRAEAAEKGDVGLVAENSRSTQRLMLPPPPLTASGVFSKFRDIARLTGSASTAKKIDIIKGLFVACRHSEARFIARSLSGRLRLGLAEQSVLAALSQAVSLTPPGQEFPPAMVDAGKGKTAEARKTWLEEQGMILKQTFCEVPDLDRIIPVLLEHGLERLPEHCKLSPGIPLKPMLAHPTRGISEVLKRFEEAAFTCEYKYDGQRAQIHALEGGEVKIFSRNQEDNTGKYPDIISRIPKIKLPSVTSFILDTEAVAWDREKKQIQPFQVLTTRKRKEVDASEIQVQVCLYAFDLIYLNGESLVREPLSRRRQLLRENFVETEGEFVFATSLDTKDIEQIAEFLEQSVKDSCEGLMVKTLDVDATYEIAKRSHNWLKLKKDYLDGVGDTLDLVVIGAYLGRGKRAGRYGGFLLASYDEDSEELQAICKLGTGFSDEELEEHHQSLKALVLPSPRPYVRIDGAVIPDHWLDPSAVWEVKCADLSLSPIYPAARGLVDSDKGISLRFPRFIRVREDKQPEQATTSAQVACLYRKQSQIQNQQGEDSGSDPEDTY

[12] = system: Haemophilus influenzae; assay: Antibacterial activity against efflux pump-deficient Haemophilus influenzae; assay type: functional

Row | Structure (SMILES) | IC50 [1] [nM] | IC50 [2] [nM] | MIC [3] [µg/mL] | MIC [4] [µg/mL] | Papp A→B [5] [×10⁻⁶ cm/s] | logD [6] | solubility thermodynamic [7] [µM] | fraction unbound [8] | IC50 [9] [nM] | IC50 [10] [nM] | IC50 [11] [nM] | MIC [12] [µg/mL]
1 | C[C@H]1O[C@@H](n2cnc3c(N)nc(OC4CCCC4)nc32)[C@H](O)[C@@H]1O | 120 | 80 | 2 (≈ 5.96 µM) | 8 (≈ 23.9 µM) | 7.26 |  |  |  |  |  |  | 
2 | C[C@H]1O[C@@H](n2cnc3c(N)nc(OCC4CC45CC5)nc32)[C@H](O)[C@H]1Cl (some centres undefined) | 30 | 20 | 0.5 (≈ 1.37 µM) | 1 (≈ 2.73 µM) |  | 3.7 | 21 (≈ 7.68 µg/mL) | 0.04 |  |  |  | 
3 | Nc1nc(OC2CCCC2)nc2c1ncn2[C@@H]1O[C@H](CF)[C@@H](O)[C@H]1O | 120 | 120 | 4 (≈ 11.3 µM) | 16 (≈ 45.3 µM) |  |  |  |  |  |  |  | 
4 | Nc1nc(OC2CCCC2)nc2c1ncn2[C@@H]1O[C@H](CO)[C@H](Cl)[C@H]1O | 110 | 80 | 8 (≈ 21.6 µM) | 8 (≈ 21.6 µM) |  |  |  |  |  |  |  | 
5 | Nc1nc(OCC2(CO)CC2)nc2c1ncn2[C@@H]1O[C@H](CF)[C@@H](O)[C@H]1O | 370 | 400 | > 64 | > 64 |  |  |  |  |  |  |  | 
6 | [N-]=[N+]=N[C@@H]1[C@@H](O)[C@H](n2cnc3c(N)nc(OC4CCCC4)nc32)O[C@@H]1CF | 90 | 70 | 0.5 (≈ 1.32 µM) | 8 (≈ 21.1 µM) |  | 2.65 |  | 0.19 |  |  |  | 
7 | Nc1nc(SC2CCCC2)nc2c1ncn2[C@@H]1O[C@H](CO)[C@@H](O)[C@H]1O | 380 | 440 | 16 (≈ 43.5 µM) | 32 (≈ 87.1 µM) |  |  |  |  |  |  |  | 
8 | Nc1nc(OCC2CCC2)nc2c1ncn2[C@@H]1O[C@H](CF)[C@@H](O)[C@H]1O | 60 | 50 | 2 (≈ 5.66 µM) | 8 (≈ 22.6 µM) |  |  |  |  |  |  |  | 
9 | Nc1nc(OC2CCCC2)nc2c1ncn2[C@@H]1O[C@H](CO)[C@@H](O)[C@H]1O | 430 | 150 | 16 (≈ 45.5 µM) | 64 (≈ 182 µM) |  |  |  | 0.66 |  |  |  | 
10 | Nc1nc(OCc2nccs2)nc2c1ncn2[C@@H]1O[C@H](CF)[C@@H](O)[C@H]1O | 910 | 870 | 64 (≈ 167 µM) | > 64 |  |  |  |  |  |  |  | 
11 | C[C@H]1O[C@@H](n2cnc3c(N)nc(O[C@H]4CC[C@H](C)CC4)nc32)[C@H](O)[C@@H]1O | 160 | 50 | 1 (≈ 2.75 µM) | 2 (≈ 5.5 µM) |  | 2.35 | 934 (≈ 339 µg/mL) | 0.27 |  |  |  | 
12 | C[C@H]1O[C@@H](n2cnc3c(N)nc(OCC4CC45CC5)nc32)[C@H](O)[C@@H]1O (some centres undefined) | 60 | 40 | 1 (≈ 2.88 µM) | 2 (≈ 5.76 µM) |  | 1.78 | 801 (≈ 278 µg/mL) | 0.25 |  |  |  | 
13 | C[C@H]1O[C@@H](n2cnc3c(N)nc(OC4CCCC4)nc32)[C@H](O)[C@@H]1OCc1ccc(Cl)c(Cl)c1 | 130 | < 10 | 0.5 (≈ 1.01 µM) | 8 (≈ 16.2 µM) |  | > 3.5 | < 1 |  |  |  |  | 
14 | C[C@H]1O[C@@H](n2cnc3c(N)nc(OC4CC5CC5C4)nc32)[C@H](O)[C@@H]1O (some centres undefined) | 130 | 60 | 2 (≈ 5.76 µM) | 4 (≈ 11.5 µM) |  |  |  |  |  |  |  | 
15 | CCCCSc1nc(N)c2ncn([C@@H]3O[C@H](CO)[C@@H](O)[C@H]3O)c2n1 | 80 | 140 | 32 (≈ 90 µM) | > 64 |  |  |  | 0.003 | 510 | 1270 | > 200000 | 32 (≈ 90 µM)
16 | CCCCSc1nc(N)c2ncn([C@@H]3O[C@H](C)[C@@H](O)[C@H]3O)c2n1 | 170 | 130 | 8 (≈ 23.6 µM) | 64 (≈ 189 µM) |  |  |  |  |  |  |  | 
17 | C[C@H]1O[C@@H](n2cnc3c(N)nc(Oc4ccccc4)nc32)[C@H](O)[C@@H]1O | 140 | 2670 | 64 (≈ 186 µM) | 64 (≈ 186 µM) |  |  |  |  |  |  |  | 
18 | C[C@H]1O[C@@H](n2cnc3c(N)nc(OC4CCCC4)nc32)[C@H](O)[C@H]1Cl | 40 | 40 | 4 (≈ 11.3 µM) | 8 (≈ 22.6 µM) |  | 3.18 | 304 (≈ 108 µg/mL) |  |  |  |  | 
